The subject of test [1] is Mm (BAA-535). Details: method as in PMID 31012313. As to conditions: normoxic conditions; cited from earlier work.
Test [2] relates to Mtb CDC1551. Nature of the test: Intracellular ATP levels under BDQ cotreatment. As to conditions: 96 h.
The subject of test [3] is THP-1 cells. Nature of the test: Cytotoxicity assay (Alamar Blue), THP-1. Particulars: Homo sapiens, THP-1, 72 h, read-out: Mammalian Cell IC50, THP1. The format is cell-based. A general note: Resazurin is reduced to fluorescent resorufin, in cell work by metabolically active cells.
Test [4] relates to HepG2 cells. Nature of the test: Cytotoxicity assay (Alamar Blue), HepG2. The format is cell-based, human. Particulars: Homo sapiens, HepG2, 72 h, read-out: Mammalian Cell IC50, HepG2.
In test [5] the test system is Mtb and Mm. Nature of the test: BDQ potentiation MIC99 assay, species not given. Type of test: cell-based. Particulars: 6-azasteroid at 20 μM; species not stated.
Test [6] relates to Mm (BAA-535). Nature of the test: BDQ potentiation MIC99 microbroth assay, Mm. Type of test: cell-based, Mycobacterium marinum. Particulars: 6-azasteroid fixed at 20 μM; relative to BDQ MIC99 without azasteroid. (In general: Broth dilution looks for growth in wells or tubes with falling amounts of substance.)
The subject of test [7] is Mtb (CDC1551). Nature of the test: BDQ potentiation MIC99 microbroth assay, Mtb. As to conditions: 6-azasteroid fixed at 20 μM; relative to BDQ MIC99 without azasteroid. The format is cell-based, Mycobacterium tuberculosis.
Test [8] relates to Mtb. Briefly: MIC of 6-azasteroid alone, Mtb. Type of test: cell-based, Mycobacterium tuberculosis. Particulars: (MIC99 reported as micromolar).
In test [9] the test system is mammalian cells (HepG2 and THP-1). Briefly: Cytotoxicity in mammalian cells, cell line not given. Particulars: read-out: IC50 in mammalian cells.
Test [10] relates to Mtb (CDC1551). Details: method as in PMID 31012313. As to conditions: normoxic conditions; cited from earlier work.
Test [11] has as its system Mtb (CDC1551). Briefly: ROS sensitivity (CellROX Green) with or without cumene hydroperoxide. Type of test: cell-based, Mycobacterium tuberculosis.

In general, pIC50 refers to the IC50 on a negative log10 scale, so that one unit is a factor of ten.

pIC50: −log10 of the molar value.

Turning to `CCCN1CC2C3CCC(C(=O)Nc4cc(C(C)(C)C)ccc4C(C)(C)C)[C@@]3(C)CCC2[C@@]2(C)CCC(=O)C=C12` (stereo partly shown) [compound 2], in [1], the “potentiation of the activity of isoniazid and BDQ, Mm” value is 8 fold. Also, the “cellular ATP concentration in combination with BDQ, relative to BDQ treatment” value in test [2] (6-azasteroid 5 and 20 μM plus BDQ) is recorded as “less than 50%”. Also, the “ATP production, 6-azasteroid alone” value in [2] (20 or 5 μM, no BDQ) is recorded as “not greatly affected”. The pIC50 in test [3] was 4.62; in test [4], 4.68; in test [9], 4.60. Also, in test [5], the “reduction in BDQ MIC99” value is “greater than 8 fold”. For the same molecule, the “Fold ∆ of BDQ MIC, Mm” value in test [6] turned out to be 9 fold. Further, the “Fold ∆ of BDQ MIC, Mtb” value in test [7] turned out to be 8 fold. For the same molecule, in [8], the “Mtb MIC Alone” value was found to be 37 µM. Further, the “potentiation of the activity of isoniazid and BDQ, Mtb” value in test [10] was 8 fold. For the same molecule, the “intracellular oxidants after exogenous CHP, 6-azasteroid pretreatment” value in [11] (20 μM pretreatment 6 h, then 5 mM CHP 30 min, versus not pretreated) is on record as “greater accumulation of intracellular oxidants”. Moreover, in test [11] (20 μM, 6 h, no peroxide), the “effect on intracellular ROS levels, 6-azasteroid alone” value is listed as “negligible effect”.

The record behind these values is PMC10580313, “A Chemoproteomic Approach to Elucidate the Mechanism of Action of 6-Azasteroids with Unique Activity in Mycobacteria” (ACS Infectious Diseases, 2023).
